In ChEMBL document CHEMBL3399997 (Bioorg Med Chem Lett, 2015):

Key:
Type in all cases: physicochemical
[1] = Antioxidant activity assessed as hydroxyl radical scavenging activity by measuring relative rate constant (kAOx/kST ratio) using DMPO spin trap by ESR spin-trapping method
[2] = Antioxidant activity assessed as rate constant for hydroxyl radical scavenging activity using DMPO spin trap by ESR spin-trapping method
[3] = Antioxidant activity assessed as superoxide anion radical scavenging activity by measuring relative rate constant (kAOx/kST ratio) using CYPMPO spin trap by ESR spin-trapping method
[4] = Antioxidant activity assessed as rate constant for superoxide anion radical scavenging activity using CYPMPO spin trap by ESR spin-trapping method
[5] = Antioxidant activity assessed as alkoxyl radical scavenging activity by measuring relative rate constant (kAOx/kST ratio) using DMPO spin trap by ESR spin-trapping method
[6] = Antioxidant activity assessed as rate constant for alkoxyl radical scavenging activity using DMPO spin trap by ESR spin-trapping method
[7] = Antioxidant activity assessed as peroxyl radical scavenging activity by measuring relative rate constant (kAOx/kST ratio) using CYPMPO spin trap by ESR spin-trapping method
[8] = Antioxidant activity assessed as methyl radical scavenging activity by measuring relative rate constant (kAOx/kST ratio) using DMPO spin trap by ESR spin-trapping method
[9] = Antioxidant activity assessed as rate constant for methyl radical scavenging activity using DMPO spin trap by ESR spin-trapping method
[10] = Antioxidant activity assessed as singlet oxygen radical scavenging activity by measuring relative rate constant (kAOx/kST ratio) using 4-HO-TEMP spin trap by ESR spin-trapping method
[11] = Antioxidant activity assessed as rate constant for singlet oxygen radical scavenging activity using 4-HO-TEMP spin trap by ESR spin-trapping method

| Ratio [1] | K [2] | Ratio [3] | K [4] | Ratio [5] | K [6] [×10⁴ /M/s] | Ratio [7] | Ratio [8] | K [9] [×10⁷ /M/s] | Ratio [10] | K [11] | Structure (SMILES) |
| --- | --- | --- | --- | --- | --- | --- | --- | --- | --- | --- | --- |
| 14.7 | 4.11 ×10¹⁰ /M/s | 687 | 3.3 ×10⁴ /M/s | 28.1 | 3.57 | 32.5 | 1.82 | 2.55 | 84.4 | 7.59 ×10⁶ /M/s | NC(Cc1ccc(O)c(O)c1)C(=O)O (racemic) |
| 0.91 | 2.55 ×10⁹ /M/s | 4308 | 2.07 ×10⁵ /M/s | 27.4 | 3.48 | 19.3 | 1.85 | 2.59 | 215 | 1.93 ×10⁷ /M/s | N[C@@H](Cc1ccc(O)c(O)c1)C(=O)O [LEVODOPA] |
